The values below come from patent publication US20080175974A1, “Isomaltulose as an Aftertaste-Shortening Agent” (Suedzucker Aktiengesellschaft Mannheim/Ochsenfurt, priority 2005, published 2008).

In series [1] the test system is test subjects. Put plainly: Sensory evaluation of milk chocolate containing sucralose (aftertaste). The settings on record: milk chocolate with 42.41 g/100 g isomaltulose and 0.02 g/100 g sucralose; 12 to 17 test subjects; assessed after chocolate completely dissolved in the mouth; compared with trehalose, lactite, maltite, erythrite chocolates; FIG. 1. Type of series: in vivo, humans. As to the method:
Milk chocolates containing sucralose were produced, which contained either a sugar substitute or isomaltulose (Palatinose™) as the sweetener that is absorbed by the body. These milk chocolates were evaluated sensorially with respect to their aftertaste that is typical of sucralose.
“You have before you samples of chocolate containing sucralose. Sucralose has a pronounced, lingering aftertaste. The following samples are to be evaluated with regard to whether, and if so to what extent, this aftertaste is perceptible.
Please take a serving of chocolate (1 “square”) and suck on it. […] Then please assess the aftertaste of the sample.
To neutralize the taste, please have some of the prepared tea and the white bread.”
Samples: • Milk chocolate containing sucralose with isomaltulose • Milk chocolate containing sucralose with trehalose • Milk chocolate containing sucralose with lactite • Milk chocolate containing sucralose with maltite • Milk chocolate containing sucralose with erythrite
The sensory evaluation of the chocolates containing sucralose was performed by 12 to 17 test subjects.
The aftertaste of the sucralose was assessed after the chocolate had been completely dissolved in the mouth.

Series [2] relates to test subjects. Put plainly: Sensory evaluation of aqueous solutions containing sucralose (aftertaste). Type of series: in vivo, humans. The settings on record: aqueous solution 7.916% isomaltulose, 0.004% sucralose; 5 test subjects; assessed immediately following consumption; compared with maltodextrin or saccharose solutions; scale 0=no perceptible aftertaste, 2=clearly perceptible.
Description: Aqueous solutions containing sucralose were prepared, which contained isomaltulose, maltodextrin or saccharose as a sweetener. All the solutions also contained sucralose. […] Samples: • Maltodextrin solution: 7.916% maltodextrin; 0.004% sucralose; 92.080% water • Palatinose™ solution: 7.916% isomaltulose; 0.004% sucralose; 92.080% water • Saccharose solution: 5.603% saccharose; 0.004% sucralose; 94.393% water The sensory evaluation of the solutions containing sucralose was performed by 5 test subjects. The aftertaste of the sucralose was assessed immediately following consumption of the solution containing sucralose.

For series [3] the following is noted: water; cited from earlier work.
For series [4] the following is noted: cited from earlier work.

With `O=C(CO)[C@@H](O)[C@H](O)[C@H](O)CO[C@H]1O[C@H](CO)[C@@H](O)[C@H](O)[C@H]1O` [isomaltulose, 6-O-α-D-glucopyranosyl-fructose], the “lingering aftertaste of sucralose” value in the series on test subjects [1] and with test subjects [2] was “decreases the lingering aftertaste” each time. The aqueous solubility in series [3] is reported as 0.49 g anhydrous isomaltulose per gram of water. Moreover, the sweetening power entry in series [4] (10% aqueous isomaltulose solutions) is on record as “approximately 0.4 of the sweetening power of sugar”.
In the case of `OC[C@H]1O[C@H](O[C@]2(CCl)O[C@H](CCl)[C@@H](O)[C@@H]2O)[C@H](O)[C@@H](O)[C@H]1Cl` [sucralose, 1,6-dichloro-1,6-didesoxy-β-D-fructofuranosyl-4-chloro-4-desoxy-α-D-galactopyranoside], in series [4] (sucralose in aqueous solution), the “sweetness relative to sugar” value was “approximately 600 times sweeter than sugar”.
